compound: C1CC(C2=C(C1)C3=C(N2)C=CC(=C3)Cl)C(=O)N [Selisistat] + O=C(CCCCCCC(=O)Nc1ccccc1)NO [Vorinostat] (partner 1 µM); test: relative viability (nuclei count vs DMSO), 5 days (fraction); higher = more cells survive; conditions: first compound 0.4 µM
Summary of the method: (§1)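 Dosing by pin tool came one day after lung cancer cell lines were seeded in 1536-well plates, using either one drug or a fixed anchor-drug dose plus five library-drug doses (not always all listed) in √10 steps. After 5 days, nuclei were counted on 4× images. Relative viability is treated-well nuclei count divided by vehicle-well nuclei count, and values are medians of duplicate plates.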

Cell Line | relative viability
NCI-H522 | 0.908
NCI-H727 | 1.31
NCI-H1650 | 0.578
NCI-H1993 | 0.969
SW 1573 | 0.761
NCI-H838 | 0.721
LCLC-103H | 0.824
NCI-H520 | 0.722
NCI-H2126 | 0.865
EMC-BAC-2 | 0.487
NCI-H2085 | 0.908
HCC-366 | 0.464
NCI-H1666 | 1.09
NCI-H596 | 0.698
LK-2 | 0.396
NCI-H2087 | 0.897
NCI-H2342 | 0.749

Cell Line | relative viability
SK-MES-1 | 1.13
H3255 | 0.885
COR-L23 | 0.499
COR-L 105 | 0.892
IA-LM | 1.09
LOU-NH91 | 0.962
ChaGo-K-1 | 0.72
NCI-H2170 | 0.868
NCI-H2405 | 1.07
HOP-62 | 0.604
HCC-44 | 1.08
SW 900 | 0.684
LU99A | 0.514
BEN | 0.625
NCI-H1648 | 0.289
HCC-78 | 0.495

same assay, conditions: first compound 1.265 µM

Cell Line | relative viability
NCI-H522 | 0.868
NCI-H727 | 1.15
NCI-H1650 | 0.533
NCI-H1993 | 0.782
SW 1573 | 0.94
NCI-H838 | 0.806
LCLC-103H | 0.908
NCI-H520 | 0.705
NCI-H2126 | 0.792
EMC-BAC-2 | 0.515
NCI-H2085 | 0.855
HCC-366 | 0.434
NCI-H1666 | 1.13
NCI-H596 | 0.609
LK-2 | 0.308
NCI-H2087 | 0.667

Cell Line | relative viability
NCI-H2342 | 0.646
SK-MES-1 | 1.15
H3255 | 0.93
COR-L23 | 0.49
COR-L 105 | 0.846
LOU-NH91 | 0.919
ChaGo-K-1 | 0.728
NCI-H2170 | 0.8
NCI-H2405 | 1.19
HOP-62 | 0.783
HCC-44 | 1.09
SW 900 | 0.705
LU99A | 0.5
BEN | 0.663
NCI-H1648 | 0.446
HCC-78 | 0.467

same assay, conditions: first compound 4 µM

Cell Line | relative viability
NCI-H522 | 0.835
NCI-H727 | 0.658
NCI-H1650 | 0.704
NCI-H838 | 0.81
LCLC-103H | 0.747
NCI-H520 | 0.814
NCI-H2126 | 0.691
EMC-BAC-2 | 0.0984
NCI-H2085 | 0.714
HCC-366 | 0.57
NCI-H1666 | 1.11
NCI-H596 | 0.521
LK-2 | 0.376
NCI-H2342 | 0.626
SK-MES-1 | 1.01
H3255 | 0.822
COR-L23 | 0.577
COR-L 105 | 0.876
LOU-NH91 | 0.824
ChaGo-K-1 | 0.73
NCI-H2170 | 0.845
HOP-62 | 0.735
HCC-44 | 1.21
SW 900 | 0.518
LU99A | 0.6
BEN | 0.545
HCC-78 | 0.437

same assay, conditions: first compound 12.65 µM

Cell Line | relative viability
NCI-H522 | 0.919
NCI-H727 | 1.2
NCI-H1650 | 0.726
NCI-H1993 | 0.848
SW 1573 | 1.19
NCI-H838 | 0.764
LCLC-103H | 0.803
NCI-H520 | 0.592
NCI-H2126 | 0.861
EMC-BAC-2 | 0.12
NCI-H2085 | 0.828
HCC-366 | 0.441
NCI-H1666 | 1.13
NCI-H596 | 0.75
LK-2 | 0.339
NCI-H2087 | 0.422
NCI-H2342 | 0.899

Cell Line | relative viability
SK-MES-1 | 1.1
H3255 | 0.834
COR-L23 | 0.515
COR-L 105 | 0.964
IA-LM | 0.926
LOU-NH91 | 0.835
ChaGo-K-1 | 0.729
NCI-H2170 | 0.917
NCI-H2405 | 0.975
HOP-62 | 0.613
HCC-44 | 1.24
SW 900 | 0.747
LU99A | 0.51
BEN | 0.636
NCI-H1648 | 0.596
HCC-78 | 0.428

same assay, conditions: first compound 40 µM

Cell Line | relative viability
NCI-H522 | 1.13
NCI-H727 | 1.16
NCI-H1650 | 0.67
NCI-H1993 | 0.949
SW 1573 | 1.03
NCI-H838 | 0.773
LCLC-103H | 0.953
NCI-H520 | 0.794
NCI-H2126 | 0.845
EMC-BAC-2 | 0.12
NCI-H2085 | 0.84
HCC-366 | 0.384
NCI-H1666 | 1.17
NCI-H596 | 0.773
LK-2 | 0.365
NCI-H2087 | 0.76
NCI-H2342 | 0.897

Cell Line | relative viability
SK-MES-1 | 1.18
H3255 | 0.872
COR-L23 | 0.573
COR-L 105 | 1.21
IA-LM | 1.22
LOU-NH91 | 0.959
ChaGo-K-1 | 0.842
NCI-H2170 | 0.964
NCI-H2405 | 0.927
HOP-62 | 0.923
HCC-44 | 1.24
SW 900 | 0.781
LU99A | 0.558
BEN | 0.657
NCI-H1648 | 0.39
HCC-78 | 0.6

compound: c1ccc2c(CCNc3ccc(Nc4ccncc4)cc3)c[nH]c2c1 [Serdemetan] + Cc1cc(Nc2cc(N3CCN(C)CC3)nc(Sc3ccc(NC(=O)C4CC4)cc3)n2)n[nH]1 [Tozasertib] (partner 0.1 µM); test: as above; conditions: first compound 0.04 µM
Summary of the method: as §1

Cell Line | relative viability
NCI-H522 | 0.554
NCI-H1623 | 0.421
NCI-H727 | 0.695
NCI-H1650 | 0.415
NCI-H1993 | 0.578
SW 1573 | 0.168
NCI-H838 | 0.282
LCLC-103H | 0.611
NCI-H520 | 0.42
NCI-H2126 | 0.867
EMC-BAC-2 | 0.246
NCI-H2085 | 0.813
HCC-366 | 0.134
NCI-H1666 | 0.569
NCI-H596 | 0.825
LK-2 | 0.171

Cell Line | relative viability
NCI-H2087 | 0.282
NCI-H2342 | 0.607
SK-MES-1 | 0.871
H3255 | 0.678
COR-L23 | 0.236
COR-L 105 | 0.313
LOU-NH91 | 0.692
ChaGo-K-1 | 0.231
NCI-H2170 | 0.662
NCI-H2405 | 0.7
HOP-62 | 0.421
HCC-44 | 1
SW 900 | 0.494
LU99A | 0.321
BEN | 0.451
HCC-78 | 0.414

same assay, conditions: first compound 0.1265 µM

Cell Line | relative viability
NCI-H522 | 0.575
NCI-H1623 | 0.517
NCI-H727 | 0.542
NCI-H1650 | 0.483
NCI-H1993 | 0.579
SW 1573 | 0.15
NCI-H838 | 0.246
LCLC-103H | 0.605
NCI-H520 | 0.413
NCI-H2126 | 0.874
EMC-BAC-2 | 0.298
NCI-H2085 | 0.797
HCC-366 | 0.0681
NCI-H1666 | 0.588
NCI-H596 | 0.787
LK-2 | 0.176
NCI-H2087 | 0.237

Cell Line | relative viability
NCI-H2342 | 0.553
SK-MES-1 | 0.859
H3255 | 0.693
COR-L23 | 0.201
COR-L 105 | 0.336
LOU-NH91 | 0.654
ChaGo-K-1 | 0.232
NCI-H2170 | 0.732
NCI-H2405 | 0.704
HOP-62 | 0.323
HCC-44 | 1.04
SW 900 | 0.413
LU99A | 0.297
BEN | 0.477
NCI-H1648 | 0.46
HCC-78 | 0.354

same assay, conditions: first compound 0.4 µM

Cell Line | relative viability
NCI-H522 | 0.44
NCI-H1623 | 0.349
NCI-H727 | 0.509
NCI-H1650 | 0.405
NCI-H1993 | 0.592
SW 1573 | 0.218
NCI-H838 | 0.234
LCLC-103H | 0.502
NCI-H520 | 0.441
NCI-H2126 | 0.786
EMC-BAC-2 | 0.248
NCI-H2085 | 0.77
HCC-366 | 0.0532
NCI-H1666 | 0.588
NCI-H596 | 0.774
LK-2 | 0.194
NCI-H2087 | 0.308

Cell Line | relative viability
NCI-H2342 | 0.605
SK-MES-1 | 0.851
H3255 | 0.629
COR-L23 | 0.224
COR-L 105 | 0.357
LOU-NH91 | 0.442
ChaGo-K-1 | 0.2
NCI-H2170 | 0.7
NCI-H2405 | 0.734
HOP-62 | 0.322
HCC-44 | 0.765
SW 900 | 0.441
LU99A | 0.265
BEN | 0.531
NCI-H1648 | 0.38
HCC-78 | 0.363

same assay, conditions: first compound 1.265 µM

Cell Line | relative viability
NCI-H1623 | 0.385
NCI-H727 | 0.585
NCI-H1650 | 0.389
NCI-H1993 | 0.568
SW 1573 | 0.248
NCI-H838 | 0.231
LCLC-103H | 0.448
NCI-H520 | 0.329
NCI-H2126 | 0.832
EMC-BAC-2 | 0.22
NCI-H2085 | 0.708
HCC-366 | 0.0456
NCI-H1666 | 0.553
NCI-H596 | 0.513
LK-2 | 0.207
NCI-H2087 | 0.202

Cell Line | relative viability
NCI-H2342 | 0.493
SK-MES-1 | 0.747
H3255 | 0.626
COR-L23 | 0.174
COR-L 105 | 0.405
LOU-NH91 | 0.509
ChaGo-K-1 | 0.178
NCI-H2170 | 0.276
NCI-H2405 | 0.659
HOP-62 | 0.328
HCC-44 | 0.915
SW 900 | 0.329
LU99A | 0.183
BEN | 0.478
NCI-H1648 | 0.206
HCC-78 | 0.329

same assay, conditions: first compound 4 µM

Cell Line | relative viability
NCI-H522 | 0.497
NCI-H1623 | 0.399
NCI-H727 | 0.518
NCI-H1650 | 0.351
NCI-H1993 | 0.562
SW 1573 | 0.18
NCI-H838 | 0.232
LCLC-103H | 0.402
NCI-H520 | 0.313
NCI-H2126 | 0.79
EMC-BAC-2 | 0.217
NCI-H2085 | 0.574
HCC-366 | 0.042
NCI-H1666 | 0.547
NCI-H596 | 0.34
LK-2 | 0.168
NCI-H2087 | 0.2
NCI-H2342 | 0.408
SK-MES-1 | 0.865
H3255 | 0.556
COR-L23 | 0.165
COR-L 105 | 0.366
LOU-NH91 | 0.684
ChaGo-K-1 | 0.167
NCI-H2170 | 0.685
NCI-H2405 | 0.662
HOP-62 | 0.245
HCC-44 | 0.869
SW 900 | 0.359
LU99A | 0.185

From the supplement of paper PMC10307832
